Reference: patent US20200171030A1, “DUAL INHIBITORS OF ALK5 AND P38A MAP KINASE” (INTEGRAL BIOSCIENCES PRIVATE LIMITED, priority 2018, published 2020)
Counter-ions that a name gives are not always drawn. Like-named read-outs stand apart in the source and are kept apart here.

Legend:
Panc-1 = test: Cell viability assay (resazurin, 96 hr) in Panc-1; type: cell-based; conditions: Homo sapiens; Panc-1 pancreatic cell line, 96 hr exposure; read-out: Panc-1_Cell Viability_IC50
Description: (§1) Cell Viability Assay in MIA PaCa-2 and Panc-1
(§2) MIA PaCa-2 (ATCC® CRL-1420™) and Panc-1 (CRL-1469™), both pancreatic cell lines were seeded in their respective medium (DMEM, Cat #10569044 with 10% FBS, Cat #16000044; Gibco for Panc-1 and an additional 2.5% Horse Serum, Cat #16050122; Gibco for MIA PaCa-2) at a cell count of 3000 cells per 100 μl per well in a 96 well edge plate (167425; ThermoFisher). Cells were allowed to grow at 37° C. for 24 hr in 5% CO2 (culture conditions) in a Nuaire incubator (humidified). Serially diluted compounds (100 μl) were added to the culture plate 24 hr later and the cultures (MIA PaCa-2 and Panc-1) were further incubated in culture conditions for 96 hr. Experiment was terminated at the completion of 96 hr exposure to the drug by replacing the medium with 100 μl of 1 mM of resazurin (R7017; Sigma) prepared in culture medium and the plates were further incubated in culture conditions for 4 hr. Fluorescence was then measured using a multimodal plate reader (Biotek Synergy Neo) at an excitation wavelength of 535 nm and emission wavelength of 590 nm to obtain relative fluorescence units. Data analysis was done by subtracting the background fluorescence (only medium blank) value from each reading and then normalizing with the vehicle control (DMSO treated cells) to obtain percent survival/proliferation. Percent survival at different doses was used to calculate IC50 by fitting the curve to the “four-parameter variable slope logistic model” using Prism Graph Pad.

TGFBR1 (ALK5) = target: T1, TGFBR1 (ALK5) (Homo sapiens, UniProt P36897); test: ALK5 kinase assay (LanthaScreen Terbium labeled TR-FRET); type: biochemical; conditions: for inhibition at 0.1 µM: 100 nM concentration of compound, read-out: Enzyme Activity TGFBR1 (ALK5) % Inhibition at 100 nM
T1 sequence (P36897 34-503): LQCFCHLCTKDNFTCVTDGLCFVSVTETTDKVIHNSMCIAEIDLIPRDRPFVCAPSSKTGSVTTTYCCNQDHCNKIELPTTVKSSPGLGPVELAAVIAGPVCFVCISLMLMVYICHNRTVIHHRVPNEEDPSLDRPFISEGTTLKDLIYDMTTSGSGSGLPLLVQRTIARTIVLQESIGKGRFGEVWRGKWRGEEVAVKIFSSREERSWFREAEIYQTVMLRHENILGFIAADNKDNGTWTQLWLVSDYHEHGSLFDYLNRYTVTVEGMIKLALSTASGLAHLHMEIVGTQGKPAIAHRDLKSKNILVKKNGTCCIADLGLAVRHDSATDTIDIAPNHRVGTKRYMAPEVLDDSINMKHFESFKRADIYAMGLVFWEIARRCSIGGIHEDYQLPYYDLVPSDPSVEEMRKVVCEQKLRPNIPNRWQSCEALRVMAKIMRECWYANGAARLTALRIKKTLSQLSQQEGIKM
Description: ALK5 Kinase Assay for IC50 Determination:
IC50 values of compounds against TGFβ kinase was determined by LanthaScreen™ Terbium Labeled TR-FRET assay. Kinase assays were performed in IX kinase buffer (# PV6135, Invitrogen, Life Technologies Grand Island, N.Y.) where total reaction volume was 10 μL in low-volume 384-well plates (#4511,Corning). Serially diluted compounds (3-fold) were incubated with TGFβ kinase (6 nM) for 10 min, following which a mixture of ATP (10 μM) (# A1852, Sigma, St-Louis, Mo.) and fluorescent-PolyGT substrate (200 nM) (# PV3610, Invitrogen, Life Technologies Grand Island, N.Y.) was added and incubated in dark at room temperature for 1 h. After 1 h, 10 μL stop solution containing Terbium labeled antibody (4 nM) (# PV3529, Invitrogen, Life Technologies Grand Island, N.Y.) and EDTA (# E5134, Sigma, St-Louis, Mo.) (20 mM) in TR-FRET dilution buffer (# PV3574, Invitrogen, Life Technologies Grand Island, N.Y.) was added. Readings were taken in a Synergy Neo Plate reader (BioTek, Winooski) at single excitation of 340 nm and Dual emission at 495 nm and 520 nm respectively.
The % activity of test samples was calculated as (Sample−Min)×100/(Max−Min). [Max: DMSO control, complete reaction with enzyme with DMSO and Min: No enzyme with DMSO]. Percent inhibition (100-% activity) was fitted to the “four-parameter logistic model” in XLfit for determination of IC50 values.

MAPK14/p38α kinase = target: T2, MAPK14/p38α kinase (Homo sapiens, UniProt Q16539); test: MAPK14/p38α kinase assay (LanthaScreen TR-FRET); type: biochemical; conditions: for inhibition at 0.1 µM: 100 nM concentration of compound; for IC50: Table 3, read-out: IC50 (P38 alpha)
T2 construct: purchased ThermoFisher PV3304
Description: MAPK14/p38α Kinase Assay for IC50 Determination:
IC50 values of compounds against MAPK14/P38α kinase were determined by Lanthascreen based TR-FRET assay. Kinase reactions were performed in a 10 μL volume in low-volume 384-well plates. The concentration of substrate was maintained at 400 nM in the assay, and the kinase reaction buffer (1×; Cat # PV3189, ThermoFisher) consisted of 50 mM HEPES pH 7.5, 0.01% BRIJ-35, 10 mM MgCl2, and 1 mM EGTA. Serially diluted compounds (3-fold) in DMSO (0.5% in final reaction) were incubated with cocktail of MAPK14/p38α kinase (20 ng/ml; Cat # PV3304, ThermoFisher), Substrate GFP-ATF2 (19-96), (0.4 μM; Cat # PV4445, ThermoFisher), ATP (90 μM; Cat # PV3227, ThermoFisher) and buffer. Kinase reactions were allowed to proceed for 1 hour at room temperature before EDTA (10 mM; Cat # P2825, ThermoFisher) and LanthaScreen™ Tb-antipATF2 (pThr71) Antibody (2 nM; Cat # PV4451, ThermoFisher) in TR-FRET dilution buffer (IX; Cat # PV3574, ThermoFisher) were added. The plate was allowed to incubate at room temperature for 30 minutes before being read on a BMG Pherastar plate reader using the LanthaScreen™ filter block for LanthaScreen™ TR-FRET.
The resulting TR-FRET emission ratio was plotted against the concentration of inhibitor, and the data was fit to a sigmoidal dose-response curve with a variable slope. The IC50 for the inhibitor was calculated from the curve.

MIA PaCa-2 = test: Cell viability assay (resazurin, 96 hr) in MIA PaCa-2; type: cell-based; conditions: Homo sapiens; MIA PaCa-2 pancreatic cell line, 96 hr exposure; read-out: MiaPaCa-2_Cell Viability_IC50
Description: as §1, §2

[1] = read-out: Enzyme Activity MAPK14 (p38 alpha) % Inhibition at 100 nM
[2] = Table 4, read-out: Enzyme Activity MAPK14 (p38alpha) % Inh at 100 nM

T2 sequence (Q16539 whole entry): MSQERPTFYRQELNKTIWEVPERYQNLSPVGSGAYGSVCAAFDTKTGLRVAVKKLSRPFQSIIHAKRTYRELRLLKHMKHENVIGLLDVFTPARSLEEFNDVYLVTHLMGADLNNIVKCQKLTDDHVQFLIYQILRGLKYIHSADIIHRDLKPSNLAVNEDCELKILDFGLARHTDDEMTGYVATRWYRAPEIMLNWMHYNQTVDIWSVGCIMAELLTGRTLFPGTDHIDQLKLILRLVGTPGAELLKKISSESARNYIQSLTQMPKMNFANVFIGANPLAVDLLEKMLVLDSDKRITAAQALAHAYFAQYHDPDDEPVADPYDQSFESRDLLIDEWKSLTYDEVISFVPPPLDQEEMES

## CC(C)c1cnc(-c2ccc(F)cc2)nc1Nc1ccnc2[nH]cc(N3CCOCC3)c12 [Compound No. 5, N-(2-(4-fluorophenyl)-5-isopropylpyrimidin-4-yl)-3-morpholino-1H-pyrrolo [2,3-b] pyridin-4-amine hydrochloride]
Panc-1
  IC50: > 30 µM
TGFBR1 (ALK5)
  inhibition at 0.1 µM: 88%
MAPK14/p38α kinase; [1]
  inhibition at 0.1 µM: 7%
MIA PaCa-2
  IC50: > 30 µM

## CC(C)c1cnc(-c2ccc(F)cc2)nc1Nc1ccnc2[nH]cc(-n3cncn3)c12 [Compound No. 6, N-(2-(4-fluorophenyl)-5-isopropylpyrimidin-4-yl)-3-(1H-1,2,4-triazol-1-yl)-1H-pyrrolo [2,3-b] pyridin-4-amine hydrochloride]
Panc-1
  IC50: 0.645 µM
TGFBR1 (ALK5)
  inhibition at 0.1 µM: 97%
MAPK14/p38α kinase; [1]
  inhibition at 0.1 µM: 0%
MIA PaCa-2
  IC50: 0.655 µM

## CC(C)c1cnc(-c2ccc(F)cc2)nc1Nc1ccnc2[nH]cc(N3CCNC[C@@H]3C)c12 [Compound No. 7, N-(2-(4-fluorophenyl)-5-isopropylpyrimidin-4-yl)-3-(2-methylpiperazin-1-yl)-1H-pyrrolo [2,3-b] pyridin-4-amine hydrochloride]
Panc-1
  IC50: 2.69 µM
TGFBR1 (ALK5); Table 3, read-out: IC50 (ALK5)
  IC50: 0.155 µM
MAPK14/p38α kinase
  IC50: 0.042 µM
MIA PaCa-2
  IC50: 2.44 µM

## CC(C)c1cnc(-c2ccc(F)cc2)nc1Nc1ccnc2[nH]cc(N3CCNC[C@H]3C)c12 [Compound No. 8, N-(2-(4-fluorophenyl)-5-isopropylpyrimidin-4-yl)-3-(2-methylpiperazin-1-yl)-1H-pyrrolo [2,3-b] pyridin-4-amine hydrochloride]
Panc-1
  IC50: > 30 µM
TGFBR1 (ALK5); Table 3, read-out: IC50 (ALK5)
  IC50: 0.095 µM
MAPK14/p38α kinase
  IC50: 0.061 µM
MIA PaCa-2
  IC50: > 30 µM

## CC(C)c1cnc(-c2ccc(F)cc2)nc1Nc1ccnc2[nH]cc(N3CCN[C@H](C)C3)c12 [Compound No. 9, (R)—N-(2-(4-fluorophenyl)-5-isopropylpyrimidin-4-yl)-3-(3-methylpiperazin-1-yl)-1H-pyrrolo[2,3-b]pyridin-4-amine hydrochloride]
Panc-1
  IC50: 3.28 µM
TGFBR1 (ALK5); Table 4, read-out: ALK5 IC50
  IC50: 0.103 µM
MAPK14/p38α kinase; [2]
  inhibition at 0.1 µM: 52%
MIA PaCa-2
  IC50: 3.53 µM

## CC(C)c1cnc(-c2ccc(F)cc2)nc1Nc1ccnc2[nH]cc(N3CCNC(=O)C3)c12 [Compound No. 10, 4-(4-(2-(4-fluorophenyl)-5-isopropylpyrimidin-4-ylamino)-1H-pyrrolo [2,3-b]pyridin-3-yl) piperazin-2-one formate]
Panc-1
  IC50: 2.73 µM
TGFBR1 (ALK5); Table 4, read-out: ALK5 IC50
  IC50: 0.303 µM
MAPK14/p38α kinase; [2]
  inhibition at 0.1 µM: 28%
MIA PaCa-2
  IC50: 3.46 µM

## CC(C)c1cnc(-c2ccc(F)cc2)nc1Nc1ccnc2[nH]cc(N3CCN[C@@H](C)C3)c12 [Compound No. 11, (S)—N-(2-(4-fluorophenyl)-5-isopropylpyrimidin-4-yl)-3-(3-methylpiperazin-1-yl)-1H-pyrrolo[2,3-b]pyridin-4-amine hydrochloride]
Panc-1
  IC50: 2.81 µM
TGFBR1 (ALK5); Table 4, read-out: ALK5 IC50
  IC50: 0.147 µM
MAPK14/p38α kinase; [2]
  inhibition at 0.1 µM: 18%
MIA PaCa-2
  IC50: 2.04 µM

## CC(C)c1cnc(-c2ccc(F)cc2)nc1Nc1ccnc2[nH]cc(N3CCC(C(N)=O)CC3)c12 [Compound No. 12, 1-(4-((2-(4-fluorophenyl)-5-isopropylpyrimidin-4-yl)amino)-1H-pyrrolo[2,3-b]pyridin-3-yl)piperidine-4-carboxamide formic acid]
Panc-1
  IC50: 2.6 µM
TGFBR1 (ALK5); Table 4, read-out: ALK5 IC50
  IC50: 1.17 µM
MAPK14/p38α kinase; [2]
  inhibition at 0.1 µM: 37%
MIA PaCa-2
  IC50: 1.78 µM

## CC(C)c1cnc(-c2ccc(F)cc2)nc1Nc1ccnc2[nH]cc(C(=O)C(N)=O)c12 [Compound No. 17, 2-(4-((2-(4-fluorophenyl)-5-isopropylpyrimidin-4-yl)amino)-1H-pyrrolo[2,3-b]pyridin-3-yl)-2-oxoacetamide hydrochloride]
Panc-1
  IC50: > 30 µM
TGFBR1 (ALK5); Table 3, read-out: IC50 (ALK5)
  IC50: > 5 µM
MAPK14/p38α kinase
  IC50: 0.309 µM
MIA PaCa-2
  IC50: 0.765 µM

## CNC(=O)C(=O)c1c[nH]c2nccc(Nc3nc(-c4cc(Cl)ccc4F)ncc3C(C)C)c12 [Compound No. 18, 2-(4-((2-(5-chloro-2-fluorophenyl)-5-isopropylpyrimidin-4-yl)amino)-1H-pyrrolo[2,3-b]pyridin-3-yl)-N-methyl-2-oxoacetamide hydrochloride]
Panc-1
  IC50: > 30 µM
TGFBR1 (ALK5); Table 3, read-out: IC50 (ALK5)
  IC50: > 5 µM
MAPK14/p38α kinase
  IC50: 0.349 µM
MIA PaCa-2
  IC50: > 30 µM

## CC(C)c1cnc(-c2ccc(F)cc2)cc1Nc1ccnc2[nH]cc(C(=O)C(N)=O)c12 [Compound No. 19, 2-(4-((2-(4-fluorophenyl)-5-isopropylpyridin-4-yl)amino)-1H-pyrrolo[2,3-b]pyridin-3-yl)-2-oxoacetamide hydrochloride]
Panc-1
  IC50: 23.2 µM
TGFBR1 (ALK5); Table 3, read-out: IC50 (ALK5)
  IC50: 0.278 µM
MAPK14/p38α kinase
  IC50: 1.76 µM
MIA PaCa-2
  IC50: 15.5 µM

## CC(C)c1cnc(-c2ccc(F)cc2)nc1Nc1ccnc2[nH]cc(C(=O)C(=O)N3CCNCC3)c12 [Compound No. 23, 1-(4-(2-(4-fluorophenyl)-5-isopropylpyrimidin-4-ylamino)-1H-pyrrolo [2,3-b]pyridin-3-yl)-2-(piperazin-1-yl) ethane-1,2-dione hydrochloride]
Panc-1
  IC50: 5.85 µM
TGFBR1 (ALK5); Table 3, read-out: IC50 (ALK5)
  IC50: 0.671 µM
MAPK14/p38α kinase
  IC50: 1.3 µM
MIA PaCa-2
  IC50: 1.14 µM

## CC(C)c1cnc(-c2ccccc2)nc1Nc1ccnc2[nH]cc(C(=O)C(N)=O)c12 [Compound No. 26, 2-(4-((5-isopropyl-2-phenylpyrimidin-4-yl)amino)-1H-pyrrolo[2,3-b]pyridin-3-yl)-2-oxoacetamide hydrochloride]
Panc-1
  IC50: > 30 µM
TGFBR1 (ALK5); Table 3, read-out: IC50 (ALK5)
  IC50: 0.602 µM
MAPK14/p38α kinase
  IC50: 0.244 µM
MIA PaCa-2
  IC50: 2.19 µM
